Measurements published in publication PMC5834492, “Antimycobacterial drug discovery using Mycobacteria-infected amoebae identifies anti-infectives and new molecular targets” (Scientific Reports, 2018).
Entries after “also recorded” stand apart in the source; their conditions may differ.

Experiments:
M. marinum luxCDABE = type: cell-based, Mycobacterium marinum
M. marinum GFP = type: cell-based, Mycobacterium marinum; details: for M. marinum GFP normalised growth, control=1.00, mean: 10 µM, antibiotic assay; for antibiotic activity in M. marinum growth assay: broth
[1] = system: M. marinum in A. castellanii; type: cell-based, Mycobacterium marinum
[2] = system: M. marinum in BV2 microglial cells; type: cell-based, Mycobacterium marinum
[3] = system: M. bovis BCG pMV261 (empty plasmid); type: cell-based, Mycobacterium bovis BCG
M. bovis BCG pMV261-murC = type: cell-based, Mycobacterium bovis BCG
D. discoideum GFP-ABD = details: for D. discoideum GFP-ABD normalised growth, control=1.00, mean: 10 µM
Mtb H37Rv in THP-1 = system: Mtb H37Rv in THP-1; set-up: method as in Sorrentino et al, 2015; details: ref Sorrentino et al, 2015, cited from earlier work; for Intracelullar MIC90 in THP-1: THP1 / Mtb H37Rv infection assay; for Extracellular MIC90/ Inracellular MIC90: ratio
Mtb H37Rv = system: Mtb H37Rv; set-up: method as in Sorrentino et al, 2015; details: ref Sorrentino et al, 2015; cited from earlier work
M. bovis BCG pMV261-fbpA = type: cell-based, Mycobacterium bovis BCG
[4] = not told; cited from earlier work

Row | SMILES | Intracelullar MIC90 in THP-1 (Mtb H37Rv in THP-1) [µM] | Extracellular MIC90/ Inracellular MIC90 (Mtb H37Rv in THP-1) | Extracellular MIC90 (Mtb H37Rv) [µM] | Antibiotic assays: M. marinum luxCDABE (M. marinum luxCDABE) | Intracellular infection assays: A. castellanii / M. marinum [1] | Intracellular infection assays: BV2 / M. marinum [2] | Growth inhibition / Cytotoxicity assays: D. discoideum GFP-ABD (D. discoideum GFP-ABD) | Growth inhibition / Cytotoxicity assays: BV2 cells (BV2 cells) | further results
1 | CC(C)OC(=O)COc1ccc(-c2cnc(N(C)CCc3ccncc3)nc2)cc1 [GSK831784A] |  |  |  |  |  |  |  |  | M. marinum luxCDABE normalised growth, control = 1.00, mean (M. marinum luxCDABE; 10 µM): 0,00; M. marinum luxCDABE normalised growth, control=1.00, mean (M. marinum luxCDABE; 10 µM): 0.00; M. marinum GFP normalised growth, control=1.00, mean (M. marinum GFP): 0.10; antibiotic activity in M. marinum growth assay (M. marinum GFP): strong antibiotic activity; A. castellanii / M. marinum normalised growth, control=1.00, mean ([1]; 10 µM): 0.20; Hits A. castellanii/M. marinum assay True/False ([1]; 10 µM): TRUE; IC50 [2]: 15 µM; BV2 / M. marinum normalised growth, control=1.00, mean ([2]; 10 µM): 0.97; hit in BV2/M. marinum assay True/False ([2]; 10 µM): FALSE; pXC50(1) [3]: 4.96; pXC50(2) [3]: 4.97; pIC50 Shift (1) (M. bovis BCG pMV261-murC): 0.32; pIC50 Shift (2) (M. bovis BCG pMV261-murC): 0.42; pXC50(1) (M. bovis BCG pMV261-murC): 4.64; pXC50(2) (M. bovis BCG pMV261-murC): 4.55; D. discoideum GFP-ABD normalised growth, control=1.00, mean (D. discoideum GFP-ABD): 0.98
2 | Cc1ccc2nc(C)c(-c3ccn(Cc4ccccc4)n3)n2c1 [GSK847920A] | 1.85 | 2.7 | 5 |  |  |  |  |  | M. marinum luxCDABE normalised growth, control=1.00, mean (M. marinum luxCDABE; 10 µM): 0.11; M. marinum GFP normalised growth, control=1.00, mean (M. marinum GFP): 0.36; antibiotic activity in M. marinum growth assay (M. marinum GFP): strong antibiotic activity; A. castellanii / M. marinum normalised growth, control=1.00, mean ([1]; 10 µM): 1.17; IC50 [2]: 3.29 µM; BV2 / M. marinum normalised growth, control=1.00, mean ([2]; 10 µM): 0.95; pXC50(1) [3]: 5.94; pXC50(2) [3]: 5.99; pIC50 Shift (1) (M. bovis BCG pMV261-murC): 0.49; pIC50 Shift (2) (M. bovis BCG pMV261-murC): 0.54; pXC50(1) (M. bovis BCG pMV261-murC): 5.45; pXC50(2) (M. bovis BCG pMV261-murC): 5.45; D. discoideum GFP-ABD normalised growth, control=1.00, mean (D. discoideum GFP-ABD): 0.34
3 | O=C(NCc1ccccc1F)N1CCN(Cc2ccc(Br)s2)CC1 [GSK1758774A] | 5.55 | 1.19 | 6.6 | 1.00 | 1.13 | 1.05 | 0.85 | False | 
4 | COc1ccc(-c2ccc(Nc3cccc(S(=O)(=O)CCNCCc4cccs4)c3)nc2)cn1 [GSK1826089A] | 1.85 | 4.11 | 7.6 | 0.085 | 1.17 | 1.09 | 0.69 | False | 
5 | COc1ccc(CC(=O)Nc2c(-c3cccs3)nc3cc(C)ccn23)cc1 [GSK1857145A] | 5.55 | 1.22 | 6.8 | 1.00 | 1.19 | 1.12 | 0.93 | False | 
6 | Cc1ccc(SCCNC(=O)c2c(-c3ccccc3)noc2C)cc1 [GSK1863309A] | 16.65 | 0.47 | 7.8 | 0.00 | 1.09 | 1.12 | 0.97 | False | 
7 | O=C(C1CCN(c2nnc(-n3cccc3)s2)CC1)N1CCC(Cc2ccccc2)CC1 [GSK2032710A] | 0.61 | 6.88 | 4.2 | 0.00 | 1.06 | 1.25 | 1.04 | False | 
8 | CCc1ccc(CN2CCC3(CC2)OCCc2sccc23)s1 [GSK2200160A] | 0.21 | 4.76 | 1 | 0.35 | 0.77 | 1.09 | 0.03 | False | 
9 | COc1cc(Cc2cnc(N)nc2N)c2cnccc2c1N(C)C [GW360240X] | 50 | 0.06 | 3 | 0.74 | 1.10 | 1.06 | 1.13 | False | 
10 | CC(C)(C)c1ccc(-c2nnc(SCC(=O)OC3CCCCC3)o2)cc1 [GW859039X] | 5.55 | 0.31 | 1.7 | 0.075 | 0.90 | 1.04 | 0.68 | False | antibiotic activity in M. marinum growth assay (M. marinum GFP): strong antibiotic activity; pXC50(1) [3]: 5.03; pXC50(2) [3]: 5.04; pIC50 Shift (1) (M. bovis BCG pMV261-fbpA): 0.43; pIC50 Shift (2) (M. bovis BCG pMV261-fbpA): 0.42; pXC50(1) (M. bovis BCG pMV261-fbpA): 4.6; pXC50(2) (M. bovis BCG pMV261-fbpA): 4.62
11 | O=C(C=Cc1ccccc1)N1CCN(Cc2ccc3c(c2)OCO3)CC1 [SB-516933] | 5.55 | 0.67 | 3.7 | 0.41 | 1.12 | 1.10 | 0.97 | False | 
12 | O=C(c1[nH]nc2c1CCCC2)N1CCN(Cc2ccc3c(c2)OCO3)CC1 [SB-712970] | 5.55 | 0.81 | 4.5 | 0.00 | 1.13 | 1.28 | 0.79 | False | 
13 | CCCCc1ccc(C(=O)Nc2nccc3ccccc23)nc1 [SB-746177] | 1.85 | 4.97 | 9.2 | 0.00 | 1.01 | 1.27 | 0.92 | False | 
14 | NCC[C@H](O)C(=O)N[C@@H]1C[C@H](N)[C@@H](O[C@H]2O[C@H](CN)[C@@H](O)[C@H](O)[C@H]2O)[C@H](O)[C@H]1O[C@H]1O[C@H](CO)[C@@H](O)[C@H](N)[C@H]1O [amikacin, reference compound] |  |  |  |  |  |  |  |  | effect of amikacin on intracellular mycobacteria growth [2]: has an effect on mycobacteria growth inside BV2 cells; also recorded: exerts a significant effect on intracellular bacteria; cellular permeability [4]: low cellular permeability
